The results in this text go back to patent US12465603B2, “Phthalazinone based modulators for the treatment of disease” (Soley Therapeutics, Inc., priority 2022, dated 2025).

pIC50: −log10 of the molar value.

Usually pIC50 stands for the negative decadic logarithm of the IC50, by convention in mol/L. Read a high pIC50 as a small IC50.

For assay [1], the system named is A2058 (ATCC, CRL-11147) cells. The experiment in a line: Cell viability assay (Cell Titre Glo, 72 hours) in A2058 cells. Type of assay: cell-based. To be noted: Homo sapiens. The procedure, abridged:
(§1)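 10-point dose response, top final concentration 30 μM, 1 in 3 dilutions; 5000 cells per well added directly to compound. Incubated 72 hours at 37° C, 5% CO2, then viability read by Cell Titre Glo luminescence and IC50 curves fitted.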

The test system of assay [2] is PA1 (ECACC, 90013101) cells. As to the kind of experiment: Cell viability assay (Cell Titre Glo, 72 hours) in PA1 cells. The format is cell-based. To be noted: Homo sapiens, PA-1. The procedure, abridged:
as §1

In the case of `Cc1cccc(N2CCN(C(=O)c3nn(C)c(=O)c4ccccc34)CC2)c1` [Compound 25], the pIC50 in assay [1] and in assay [2] was ≥ 6.00 each time.

Take `Cc1cc(C)cc(N2CCN(C(=O)c3nn(C)c(=O)c4ccncc34)CC2)c1` [Compound 215]: the pIC50 in assay [1] was 5.00 to 6.00; in assay [2], ≥ 6.00.

For the compound `CCn1nc(C(=O)N2CCN(c3cccc4c3OC(C)(C)C4)CC2)c2ccccc2c1=O` [Compound 96], the pIC50 in assay [1] was 5.00 to 6.00; in assay [2], ≥ 6.00.

On to `COc1ccccc1C1(C)CCN(C(=O)c2nn(C)c(=O)c3ccccc23)CC1` [Compound 249, 4-(4-(2-methoxyphenyl)-4-methylpiperidine-1-carbonyl)-2-methylphthalazin-1(2H)-one], for which the negative-log IC50 (pIC50) in assay [1] and in assay [2] was 5.00 to 6.00 in each case.

For the compound `Cc1cc(N2CCN(C(=O)c3nn(C)c(=O)c4ccccc34)CC2)ccn1` [Compound 74], the pIC50 in assay [1] and in assay [2] was < 4.70 throughout.

With `Cn1nc(C(=O)N2CCN(c3cccc(C#N)n3)CC2)c2ccccc2c1=O` [Compound 228], the pIC50 was 4.70 to 5.00 in assay [1] and 5.00 to 6.00 in assay [2].

On to `CCn1nc(C(=O)N2CCN(c3ncncc3OC)CC2)c2ccccc2c1=O` [Compound 98], for which the pIC50 in assay [1] and in assay [2] was 5.00 to 6.00 each time.

As to `CCn1nc(C(=O)N2CCN(c3ccccc3OC(C)C)CC2)c2ccccc2c1=O` [Compound 128], the pIC50 in assay [1] was 5.00 to 6.00; in assay [2] it was ≥ 6.00.

With `COc1cccc(N2CCN(C(=O)c3nn(C)c(=O)c4ncccc34)CC2)c1` [Compound 182, 5-(4-(3-methoxyphenyl)piperazine-1-carbonyl)-7-methylpyrido[2,3-d]pyridazin-8(7H)-one], the pIC50 in assay [1] and in assay [2] was < 4.70 each time.

As for `CC(C)Oc1cc(F)ccc1N1CCN(C(=O)c2nn(C)c(=O)c3ccccc23)CC1` [Compound 59], the pIC50 in assay [1] and in assay [2] was 5.00 to 6.00 throughout.

`COc1cc(F)c(F)cc1N1CCN(C(=O)c2nn(C)c(=O)c3ccccc23)CC1` [Compound 56]: the pIC50 in assay [1] and in assay [2] was ≥ 6.00 throughout.

Turning to `Cn1nc(C(=O)N2CCN(c3cccc4c3OCC4)CC2)c2ccccc2c1=O` [Compound 52], the pIC50 in assay [1] and in assay [2] was ≥ 6.00 each time.

As for `Cn1nc(C(=O)N2CCN(c3ccncc3F)CC2)c2ccccc2c1=O` [Compound 18], the pIC50 in assay [1] and in assay [2] was < 4.70 throughout.

In the case of `Cn1nc(C(=O)N2CCN(c3cc(F)cc(F)c3)CC2)c2ccccc2c1=O` [Compound 54], the pIC50 in assay [1] and in assay [2] was ≥ 6.00 each time.

For `Cn1nc(C(=O)N2CCN(c3ccccc3F)CC2)c2ccccc2c1=O` [Compound 30], the pIC50 in assay [1] and in assay [2] was 5.00 to 6.00 each time.

With `CCn1nc(C(=O)N2CCN(c3ccc(F)cc3OC(F)(F)F)CC2)c2ccccc2c1=O` [Compound 120], the pIC50 in assay [1] and in assay [2] was 5.00 to 6.00 each time.

Take `O=C(c1nn(C2CC2)c(=O)c2ccccc12)N1CCN(c2ccccc2)CC1` [Compound 9, 2-cyclopropyl-4-(4-phenylpiperazine-1-carbonyl)phthalazin-1-one]: the pIC50 in assay [1] was 5.00 to 6.00; in assay [2], ≥ 6.00.

As for `CN1CCc2cccc(N3CCN(C(=O)c4nn(C)c(=O)c5ccccc45)CC3)c21` [Compound 79], the pIC50 in assay [1] and in assay [2] was 4.70 to 5.00 in each case.

Turning to `CCn1nc(C(=O)N2CCN(c3cncnc3OC)CC2)c2ccccc2c1=O` [Compound 83], the values for the pIC50 in assay [1] and in assay [2] were 5.00 to 6.00 and ≥ 6.00, respectively.

For the compound `CCn1nc(C(=O)N2CCN(c3ccccc3C3CC3)CC2)c2ccccc2c1=O` [Compound 103], the pIC50 in assay [1] and in assay [2] was ≥ 6.00 throughout.

With `CCn1nc(C(=O)N2CCN(c3ccc(C)s3)CC2)c2ccccc2c1=O` [Compound 125], the figures for the pIC50 in assay [1] and in assay [2] were < 4.70 and 4.70 to 5.00, respectively.

For the compound `CCOc1ccccc1N1CCN(C(=O)c2nn(C)c(=O)c3ccccc23)CC1` [Compound 42], the negative logarithm of the IC50 (pIC50) in assay [1] and in assay [2] was ≥ 6.00 each time.

As to `Cn1nc(C(=O)N2CCN(c3cncnc3C3CC3)CC2)c2cc(F)ccc2c1=O` [Compound 168], the pIC50 was 5.00 to 6.00 in assay [1] and ≥ 6.00 in assay [2].

Turning to `COc1cc(F)ccc1N1CCN(C(=O)c2nn(C)c(=O)c3ccncc23)CC1` [Compound 174], the pIC50 in assay [1] was 4.70 to 5.00; in assay [2], 5.00 to 6.00.

As for `CCn1nc(C(=O)N2CCN(c3cccc(C#N)c3)CC2)c2ccccc2c1=O` [Compound 207], the pIC50 in assay [1] and in assay [2] was ≥ 6.00 in each case.

Turning to `CCOc1ccc(F)cc1N1CCN(C(=O)c2nn(C)c(=O)c3ccccc23)CC1` [Compound 48], the pIC50 in assay [1] and in assay [2] was ≥ 6.00 throughout.

`COc1cc(C#N)cc(N2CCN(C(=O)c3nn(C)c(=O)c4ccc(F)cc34)CC2)c1` [Compound 213]: the pIC50 in assay [1] and in assay [2] was ≥ 6.00 in each case.

As to `CCn1nc(C(=O)N2CCN(c3cccc4c3CCO4)CC2)c2ccccc2c1=O` [Compound 155], the pIC50 in assay [1] and in assay [2] was ≥ 6.00 throughout.

As to `Cc1cc(Cl)cc(N2CCN(C(=O)c3nn(C)c(=O)c4ccncc34)CC2)c1` [Compound 221], the pIC50 in assay [1] and in assay [2] was ≥ 6.00 throughout.

As to `COCc1ccnc(N2CCN(C(=O)c3nn(C)c(=O)c4ccccc34)CC2)n1` [Compound 65], the pIC50 in assay [1] and in assay [2] was < 4.70 in each case.

Consider `Cn1nc(C(=O)N2CCN(c3ccccn3)CC2)c2ccccc2c1=O` [Compound 31], for which the pIC50 in assay [1] and in assay [2] was < 4.70 throughout.

For the compound `Cn1nc(C(=O)N2CCN(c3nccnc3C3CC3)CC2)c2ccccc2c1=O` [Compound 21], the pIC50 was < 4.70 in assay [1] and 5.00 to 6.00 in assay [2].

On to `CC(C)n1nc(C(=O)N2CCN(c3ccccc3)CC2)c2ccccc2c1=O` [Compound 4], for which the pIC50 was < 4.70 in assay [1] and 4.70 to 5.00 in assay [2].

As for `Cn1nc(C(=O)N2CCN(c3cccc4cnn(C)c34)CC2)c2ccccc2c1=O` [Compound 191], the pIC50 in assay [1] and in assay [2] was < 4.70 throughout.

As for `COc1cncc(N2CCN(C(=O)c3nn(C)c(=O)c4ccccc34)CC2)c1` [Compound 35], the pIC50 in assay [1] and in assay [2] was 5.00 to 6.00 in each case.

Turning to `CCn1nc(C(=O)N2CCN(c3cc(F)cc(C#N)c3)CC2)c2cc(F)ccc2c1=O` [Compound 239], the pIC50 in assay [1] and in assay [2] was ≥ 6.00 throughout.

With `COc1cnc(C)cc1N1CCN(C(=O)c2nn(C)c(=O)c3ccccc23)CC1` [Compound 78], the negative logarithm of the IC50 (pIC50) in assay [1] and in assay [2] was 5.00 to 6.00 each time.

Turning to `CCn1nc(C(=O)N2CCN(c3ccccc3OCCOC)CC2)c2ccccc2c1=O` [Compound 129], the pIC50 in assay [1] and in assay [2] was < 4.70 throughout.

Consider `CCn1nc(C(=O)N2CCN(c3ccc(Cl)cc3OC)CC2)c2ccccc2c1=O` [Compound 117], for which the pIC50 in assay [1] and in assay [2] was ≥ 6.00 throughout.

Turning to `Cn1nc(C(=O)N2CCN(c3ccncc3)CC2)c2ccccc2c1=O` [Compound 28], the pIC50 in assay [1] and in assay [2] was < 4.70 in each case.

As for `COc1cc(N2CCN(C(=O)c3nn(C)c(=O)c4ccc(F)cc34)CC2)ccn1` [Compound 163], the pIC50 in assay [1] and in assay [2] was < 4.70 each time.

For `CCn1nc(C(=O)N2CCN(c3cccc4oc(=O)[nH]c34)CC2)c2ccccc2c1=O` [Compound 97], the pIC50 is < 4.70 in assay [1] and 4.70 to 5.00 in assay [2].

For `COc1ccc(N2CCN(C(=O)c3nn(C)c(=O)c4ccccc34)CC2)cc1` [Compound 29], the pIC50 in assay [1] and in assay [2] was < 4.70 throughout.

With `CCOc1cc(F)ccc1N1CCN(C(=O)c2nn(C)c(=O)c3ccccc23)CC1` [Compound 58], the negative-log IC50 (pIC50) in assay [1] was 5.00 to 6.00; in assay [2], ≥ 6.00.

In the case of `Cn1nc(C(=O)N2CCN(c3cc(C#N)cc(OC(F)F)c3)CC2)c2ccccc2c1=O` [Compound 199], the pIC50 in assay [1] and in assay [2] was ≥ 6.00 in each case.

For `CCn1nc(C(=O)N2CCN(c3ncccc3C(F)(F)F)CC2)c2ccccc2c1=O` [Compound 136], the figures for the pIC50 in assay [1] and in assay [2] were 4.70 to 5.00 and 5.00 to 6.00, respectively.

Regarding `CCn1nc(C(=O)N2CCN(c3ccccc3F)CC2)c2ccccc2c1=O` [Compound 100], the pIC50 was 5.00 to 6.00 in assay [1] and ≥ 6.00 in assay [2].

Consider `COc1ccc(C#N)cc1N1CCN(C(=O)c2nn(C)c(=O)c3ccccc23)CC1` [Compound 70], for which the pIC50 in assay [1] and in assay [2] was ≥ 6.00 each time.

As to `CCn1nc(C(=O)N2CCN(c3ccncc3C3CC3)CC2)c2ccccc2c1=O` [Compound 115], the pIC50 in assay [1] and in assay [2] was ≥ 6.00 throughout.

In the case of `CCn1nc(C(=O)N2CCN(c3cccc(C(F)(F)F)c3)CC2)c2ccccc2c1=O` [Compound 81, 2-ethyl-4-(4-(3-(trifluoromethyl)phenyl)piperazine-1-carbonyl)phthalazin-1(2H)-one], the results for the pIC50 in assay [1] and in assay [2] were 5.00 to 6.00 and ≥ 6.00, respectively.

For the compound `Cn1nc(C(=O)N2CCN(c3cncc(C4CC4)c3)CC2)c2cc(F)ccc2c1=O` [Compound 159], the pIC50 in assay [1] and in assay [2] was ≥ 6.00 in each case.

As to `CCCn1nc(C(=O)N2CCN(c3ccccc3)CC2)c2ccccc2c1=O` [Compound 5], the pIC50 in assay [1] is < 4.70; in assay [2], 4.70 to 5.00.

In the case of `CCn1nc(C(=O)N2CCN(c3ccccc3)CC2)c2ccccc2c1=O` [Compound 3, 2-ethyl-4-(4-phenylpiperazine-1-carbonyl)phthalazin-1-one], the figures for the pIC50 in assay [1] and in assay [2] were 5.00 to 6.00 and ≥ 6.00, respectively.

Consider `COc1ccccc1C1=CCN(C(=O)c2nn(C)c(=O)c3ccccc23)CC1` [Compound 247, 4-(4-(2-methoxyphenyl)-1,2,3,6-tetrahydropyridine-1-carbonyl)-2-methylphthalazin-1(2H)-one], for which the pIC50 in assay [1] and in assay [2] was ≥ 6.00 throughout.
